This is an account of results in patent US11591330B2, “HIF-2a small-molecule inhibitor and use thereof” (China Medical University, priority 2018, dated 2023).

For test [1], the system named is human breast cancer stem cell-like MCF-7 MS cells. Kind of test: MTT/CCK8 cell proliferation analysis. In kind it is cell-based. As to the method: (§1) When MCF-7 or OVCAR-3 cells grew to 70%-80%, the medium was discarded, PBS was added for washing 3 times, and trypsin was added for digestion for 1 min; the DMEM medium containing 10% fetal calf serum was added to stop the digestion, centrifuged at 1000 rpm for 5 min, the supernatant was discarded, PBS was added to resuspend cells, centrifuged at 1000 rpm for 5 min, the supernatant was discarded, 2 ml DMEM-F12 conditioned medium was added to resuspend cells, and the cells were cultured in suspension at 37° C., 5% CO2 in a constant-humidity environment.
(§2) Well-growing human breast cancer MCF-7 cells, human breast cancer stem cell-like cell MCF-7 MS cells, human ovarian cancer OVCAR-3 cells, human ovarian cancer stem cell-like cell OVCAR-3 cells were taken, digested, resuspended, and inoculated in a 96-well plate with the number of cells per well being 5×10^3; after 24 hours of culture, different concentrations of ComA, ComA combined with PTX, or ComA combined with DDP were administrated for treating the cells for 48 hours, with 3 replicate wells for each concentration; 5 mg/ml of MTT/cck8 was added for treatment for 2 h, followed by shaking for 10 min in a shaker; the absorbance at 570 nm (for measuring MTT)/450 nm (for measuring CCK8) was measured with a microplate reader, the inhibition rate was calculated according to the formula: inhibition rate %=[1−(dosing well-zero adjustment well)/(control well-zero adjustment well)]*100%; IC50 was calculated with SPSS16.0 software, and the experiment was repeated three times.

In test [2] the test system is human ovarian cancer stem cell-like OVCAR-3 MS cells. Nature of the test: MTT/CCK8 cell proliferation analysis. The test is classed as cell-based. On the procedure:
as §1, §2

Test [3] addresses T1, HIF-2α (Homo sapiens, UniProt Q99814).
T1 construct: endogenous in cells; host or cells: MCF-7 MS (mammosphere / stem cell-like cells induced from human breast cancer MCF-7)
Kind of test: Western blot analysis of HIF-2α expression in MCF-7 MS cells. In kind it is cell-based. The conditions noted are these: 48 h, FIG. 8. On the procedure:
(§3) The human breast cancer stem cell-like MCF7 MS cells were divided into control (Ctrl) group, PTX alone treatment group, ComA alone treatment group, and ComA combined with PTX treatment group, treated for 48 h, and then collected; the cells were washed twice with pre-cooled 1×PBS, and PBS was discarded; 100-200 μl RIPA cell lysis solution (RIPA cell lysis solution:Protease inhibitor cocktail=250:1) was added according to the amount of cells; the mixture was transferred to an EP tube for lysis on ice for 40-60 min, and centrifuged at 4° C. at 12000 rpm/min for 15 minutes; and the supernatant was taken and stored at −80° C. for later use.
(§4) Protein standard curve was prepared (in a 96-well plate), with the configuration system and absorbance shown in the table below, wherein the protein solution was placed at 37° C. and shaken for 30 min, the OD value was measured at 570 nm wavelength, and the protein standard curve was drawn: the abscissa being the standard protein content, and the ordinate being the absorbance value (OD value) under the 570 nm wavelength, thereby drawing a standard curve.
(§5) The samples were treated with 6× protein loading buffer. According to the quantified protein concentration, 30 μl:50 μg protein sample per well was loaded, the well was filled with PBS up to 30 μl when the sample was insufficient, and the samples were denatured in a metal bath at 100° C. for 10 min. […]

For test [4], the system named is HIF-1α. Kind of test: Western blot analysis of HIF-1α expression in MCF-7 MS cells. The test is classed as cell-based, human. The conditions noted are these: 48 h, FIG. 8. As to the method:
as §3, §4, §5
In general terms: In western blotting, separated proteins are transferred to a membrane and probed.

For test [5], the system named is human ovarian cancer OVCAR-3 cells. Kind of test: MTT/CCK8 cell proliferation analysis. The test is classed as cell-based. The conditions noted are these: MTT/cck8, FIG. 5. As to the method: (§6) MCF-7 and OVCAR-3 cells were taken out from liquid nitrogen, thawed in a water bath at 37° C., and centrifuged at 1000 rpm for 5 min, the supernatant was removed, 1 ml of DMEM medium with 10% fetal bovine serum was added to MCF-7 cells, the cell suspension was transferred into a 25 cm2 cells culture flask, and a medium with 10% fetal bovine serum was added for culture.
as §2

In test [6] the test system is human breast cancer MCF-7 cells. Kind of test: MTT/CCK8 cell proliferation analysis. In kind it is cell-based. On the procedure:
as §6, §2

T1 sequence (Q99814 whole entry): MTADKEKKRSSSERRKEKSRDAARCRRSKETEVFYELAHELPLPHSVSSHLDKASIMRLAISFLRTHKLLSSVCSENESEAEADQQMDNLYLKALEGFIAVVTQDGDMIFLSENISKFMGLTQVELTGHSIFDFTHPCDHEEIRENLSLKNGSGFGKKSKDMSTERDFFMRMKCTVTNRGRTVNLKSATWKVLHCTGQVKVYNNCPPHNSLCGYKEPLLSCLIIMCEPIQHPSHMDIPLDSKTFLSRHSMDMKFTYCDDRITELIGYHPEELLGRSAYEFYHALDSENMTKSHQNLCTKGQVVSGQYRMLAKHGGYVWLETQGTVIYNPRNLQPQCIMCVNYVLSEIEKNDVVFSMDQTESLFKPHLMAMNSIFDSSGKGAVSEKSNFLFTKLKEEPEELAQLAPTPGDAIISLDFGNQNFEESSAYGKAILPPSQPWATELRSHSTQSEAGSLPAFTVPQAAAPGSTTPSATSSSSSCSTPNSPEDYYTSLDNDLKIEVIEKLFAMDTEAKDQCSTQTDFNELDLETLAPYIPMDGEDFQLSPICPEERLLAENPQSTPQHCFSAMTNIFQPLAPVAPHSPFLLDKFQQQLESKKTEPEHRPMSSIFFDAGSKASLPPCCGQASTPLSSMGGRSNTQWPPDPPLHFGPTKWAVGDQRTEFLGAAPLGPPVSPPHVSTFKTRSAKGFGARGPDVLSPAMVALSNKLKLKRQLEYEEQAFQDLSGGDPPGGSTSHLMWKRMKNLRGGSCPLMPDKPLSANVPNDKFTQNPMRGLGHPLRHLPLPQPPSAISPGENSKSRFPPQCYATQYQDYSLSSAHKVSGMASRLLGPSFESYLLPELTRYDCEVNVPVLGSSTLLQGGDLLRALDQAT

For the compound `Cc1ccn2c(=O)cc(CN(Cc3ccccc3)Cc3ccco3)nc2c1` [ComA], the “enhancement of the inhibitory effect of paclitaxel (PTX)” value in test [1] (ComA combined with PTX, 48 hours, FIG. 6) is “can enhance the inhibitory effect”. Besides, the “inhibitory activity on proliferation” value in test [1] (MTT/cck8, FIG. 4) was “obvious inhibitory activity”; in test [2] (MTT/cck8, FIG. 5) it was “obvious inhibitory activity”; in test [5], “obvious inhibitory activity”; in test [6] (MCF-7 cells, MTT/cck8, FIG. 4), “obvious inhibitory activity”. Besides, the “enhancement of the inhibitory effect of cisplatin (DDP)” value in test [2] (ComA combined with DDP, 48 hours, FIG. 7) is “can enhance the inhibitory effect”. Moreover, the “expression of HIF-2α” value in test [3] (ComA alone) and in test [3] (ComA combined with PTX) was “obviously inhibited the expression of HIF-2α” throughout. Also, the “expression of HIF-1α” value in test [4] is “no obvious inhibitory effect”. Moreover, the “time dependence of anti-tumor cell and anti-tumor stem cell activity” value in test [6] (stated for tumor cells and tumor stem cells together) is “obviously time-dependent”.
